Test results reported in ChEMBL document CHEMBL5143578, “Elucidation of structure-activity relationship of humulanolides and identification of humulanolide analog as a novel HSP90 inhibitor” (Bioorg Med Chem Lett, 2022).
Active and inactive are the calls of the source. No cut-off for these calls is given here.

Experiments:
A549 = experiment: Antiproliferative activity against human A549 cells incubated for 24 hrs by MTT assay; assay type: functional, cell-based; details: A549, 24 h
Ca9-22 = experiment: Antiproliferative activity against human Ca9-22 cells incubated for 24 hrs by MTT assay; assay type: functional, cell-based; details: Ca9-22, 24 h
CHL-1 = experiment: Antiproliferative activity against human CHL-1 cells incubated for 24 hrs by MTT assay; assay type: functional, cell-based; details: CHL-1, 24 h
HCT-116 = experiment: Antiproliferative activity against human HCT-116 cells incubated for 24 hrs by MTT assay; assay type: functional, cell-based; details: HCT-116, 24 h
HeLa = experiment: Antiproliferative activity against human HeLa cells incubated for 24 hrs by MTT assay; assay type: functional, cell-based
HT-1080 [1] = experiment: Antiproliferative activity against human HT-1080 cells incubated for 24 hrs by MTT assay; assay type: functional, cell-based; details: HT-1080, 24 h
PC-3 = experiment: Antiproliferative activity against human PC-3 cells incubated for 24 hrs by MTT assay; assay type: functional, cell-based; details: PC-3, 24 h
SK-MEL-28 = experiment: Antiproliferative activity against human SK-MEL-28 cells incubated for 24 hrs by MTT assay; assay type: functional, cell-based; details: SK-MEL-28, 24 h
HT-1080 [2] = experiment: Induction of cell morphological changes in human HT-1080 cells at 20 uM incubated for 24 hrs by phase contrast microscopic analysis; assay type: functional, cell-based
[3] = target: T1, Heat shock protein HSP90 (Homo sapiens) (UniProt P07900+P08238); experiment: Inhibition of HSP90 in human HT-1080 cells assessed as upregulation of HSP70 protein expression measured after 24 hrs by Western blot analysis; assay type: cell-based; details: dose 3-30 µM
[4] = target: T1, Heat shock protein HSP90 (Homo sapiens); experiment: Inhibition of HSP90 in human HT-1080 cells assessed as downregulation of Akt protein expression measured after 24 hrs by Western blot analysis; assay type: cell-based; details: dose 3-30 µM
[5] = target: T1, Heat shock protein HSP90 (Homo sapiens); experiment: Inhibition of HSP90 in human HT-1080 cells assessed as downregulation of CDK4 protein expression measured after 24 hrs by Western blot analysis; assay type: cell-based; details: dose 3-30 µM
[6] = target: T1, Heat shock protein HSP90 (Homo sapiens); experiment: Inhibition of HSP90 in human HT-1080 cells assessed as decrease in CDK4 protein level by measuring half-life of CDK4 protein at 20 uM measured upto 24 hrs in the presence of cycloheximide by Western blotting analysis; assay type: cell-based
HT-1080 [7] = experiment: Upregulation of HSP70 protein expression in human HT-1080 cells by Western blotting analysis; assay type: functional, cell-based
HT-1080 [8] = experiment: Induction of cell morphological changes in human HT-1080 cells at 10 uM incubated for 24 hrs by phase contrast microscopic analysis; assay type: functional, cell-based

| Structure (SMILES) | IC50 (A549) | IC50 (Ca9-22) | IC50 (CHL-1) | IC50 (HCT-116) | IC50 (HeLa) | IC50 (HT-1080 [1]) | IC50 (PC-3) | IC50 (SK-MEL-28) | Activity (HT-1080 [2]) | inhibition [3] | inhibition [4] | inhibition [5] | T1/2 [6] | Activity (HT-1080 [7]) | Activity (HT-1080 [8]) |
| --- | --- | --- | --- | --- | --- | --- | --- | --- | --- | --- | --- | --- | --- | --- | --- |
| CC1(C)/C=C/C(=O)[C@@]2(C)O[C@H]2CCC2=C[C@@H]1OC2=O | 3.02 µM | 2.94 µM | 3.63 µM | 1.22 µM | 4.78 µM | 6.54 µM | 1.81 µM | 3.43 µM | Active | Active | Active | Active | 8 h |  |  |
| CC1(C)/C=C/[C@H](O)[C@@]2(C)O[C@H]2CCC2=C[C@@H]1OC2=O | > 10 µM | > 10 µM | > 10 µM | > 10 µM | > 10 µM | > 10 µM | > 10 µM | > 10 µM |  |  |  |  |  |  |  |
| CC1(C)/C=C/[C@H](O)[C@@]2(C)O[C@@H]2CCC2=C[C@@H]1OC2=O | > 10 µM | > 10 µM | > 10 µM | > 10 µM | > 10 µM | > 10 µM | > 10 µM | > 10 µM |  |  |  |  |  |  |  |
| CC1(C)/C=C/C(=O)[C@@]2(C)O[C@@H]2CCC2=C[C@@H]1OC2=O | > 10 µM | > 10 µM | > 10 µM | > 10 µM | > 10 µM | > 10 µM | > 10 µM | > 10 µM |  |  |  |  |  |  |  |
| C/C1=C/CCC2=C[C@H](OC2=O)C(C)(C)/C=C/C1=O | 6.62 µM | 7.52 µM | > 10 µM | 9.82 µM | 8.19 µM | 8.17 µM | 2.65 µM | > 10 µM |  |  |  |  |  | Active |  |
| CC1=CCCC23C(=O)O[C@H]4[C@@H]2[C@@H]([C@H]3C1=O)C4(C)C (some centres undefined) | > 10 µM | > 10 µM | > 10 µM | > 10 µM | > 10 µM | > 10 µM | > 10 µM | > 10 µM |  |  |  |  |  |  |  |
| C/C1=C\CCC2=C[C@H](OC2=O)C(C)(C)/C=C/[C@@H]1O | > 10 µM | > 10 µM | > 10 µM | > 10 µM | > 10 µM | > 10 µM | > 10 µM | > 10 µM |  |  |  |  |  |  |  |
| C/C1=C/CCC2=C[C@H](OC2=O)C(C)(C)/C=C\C1=O | > 10 µM | 9.89 µM | > 10 µM | > 10 µM | > 10 µM | > 10 µM | > 10 µM | > 10 µM |  |  |  |  |  |  |  |
| C/C1=C/CC[C@@H]2C(=O)O[C@H]3[C@@H]2C(=CC3(C)C)C1=O | > 10 µM | > 10 µM | > 10 µM | > 10 µM | > 10 µM | > 10 µM | > 10 µM | > 10 µM |  |  |  |  |  |  |  |
| C/C1=C\CCC2=C[C@H](OC2=O)C(C)(C)/C=C/C1=O | 5.51 µM | 4.79 µM | 4.71 µM | 6.59 µM | 8.64 µM | 5.31 µM | 3.13 µM | 5.26 µM |  |  |  |  |  | Active |  |
| COC1=C2C[C@@H](C)C[C@H](OC)[C@H](O)[C@@H](C)/C=C(\C)[C@H](OC(N)=O)[C@@H](OC)/C=C\C=C(/C)C(=O)NC(=CC1=O)C2=O |  |  |  |  |  |  |  |  |  |  |  |  |  |  | Active |
| C/C1=C/CCC23C(=O)O[C@H]4[C@@H]2[C@@H](C1=O)[C@@H]3C4(C)C | > 10 µM | > 10 µM | > 10 µM | > 10 µM | > 10 µM | > 10 µM | > 10 µM | > 10 µM |  |  |  |  |  |  |  |
| CC1(C)[C@H]2[C@H]3[C@@H]1OC(=O)C31CC[C@@H]3O[C@]3(C)C(=O)[C@H]21 (some centres undefined) | > 10 µM | > 10 µM | > 10 µM | > 10 µM | > 10 µM | > 10 µM | > 10 µM | > 10 µM |  |  |  |  |  |  |  |
